Measured values as given in publication PMC11784145, “Efficacy and in vitro pharmacological assessment of novel N-hydroxypyridinediones as hepatitis B virus ribonuclease H inhibitors” (Antimicrobial Agents and Chemotherapy, 2024).
Several values for one entry are separate records, joined by “and”; a condition that tells them apart may be missing. Equal values may be shown once.

How the values were obtained:
CYP2D6 = molecular target: T1, CYP2D6 (Homo sapiens, UniProt P10635); assay: Cytochrome P450 inhibition, Vivid 2D6 EOMCC Blue kit; format: in vitro ADME; details: for IC50: dose-response 50 µM to 3 nM, mean ± SD
T1 construct: purchased Thermo Fisher Vivid 2D6 EOMCC Blue
Method: Compound inhibition of Cytochrome P (CYP) 3A4, 2C9, and 2D6 was determined using Vivid CYP450 screening kits (Thermo Fisher) according to the manufacturer’s instructions, as described previously ([27]). The kits employed were: Vivid 3A4 DBOMF Green, 2C9 BOMF Green, and 2D6 EOMCC Blue. Reactions were initiated by addition of the fluorophore-conjugated substrates with Vivid NADP^+ and were conducted at 37°C using either a Biotek Synergy HTX multi-mode plate reader with 485/20 nm excitation and 520/20 nm emission filters (green-fluorescent substrate), or a Tecan Spark plate reader with monochromator settings at 415/20 nm excitation and 460/20 nm emission (blue-fluorescent substrate) defined by the Center Wavelength/band-pass values. Substrate cleavage was detected every 60 s.
Compounds were initially screened against each enzyme at 10 µM and maximum rates of fluorescence in RFU were calculated using the Biotek Gen5 v3.11 software. Percent inhibition of experimental compound reactions was normalized to the rate to DMSO vehicle reactions. Positive controls used were: CYP3A4—ketoconazole (Sigma Aldrich), CYP2C9—sulfaphenazole (Cayman Chemical), and CYP2D6—quinidine (Fisher Scientific). Dose-response curves were generated for compounds that inhibited an enzyme by ≥50% using titrated concentrations of compound (50 µM to 3 nM) or 1% DMSO. IC50 values were determined using the four-parameter log[inhibitor] versus response algorithm in GraphPad Prism. Qualitative screens and dose-response curves were each performed in triplicate on different days.

CYP3A4 mRNA expression = assay: CYP3A4 induction, RT-qPCR in HepG2 cells; details: 10 µM, 24 or 48 h, normalized to GAPDH and DMSO
Method: HepG2 cells were seeded on 12-well, tissue-culture-treated plates (Sarstedt) at 2.5 × 10^5 cells/well for 24 h. Cells were treated with 10 µM compound or 1% DMSO for 48 h with replenishment at 24 h. Cells were rinsed with PBS and lysed at 0, 24, and 48 h using TRI Reagent (Sigma Aldrich). […] Cellular DNA was degraded using DNase I (Invitrogen), according to the manufacturer’s instructions.
Complementary DNA (cDNA) synthesis employed the ProtoScript II First Strand cDNA Synthesis Kit (New England Biolabs) according to the manufacturer’s instructions with an additional incubation step at 25°C for 5 min. Reverse transcriptase-qPCR (RT-qPCR) was performed using a Quantstudio 5 (Thermo Fisher) in a final reaction volume of 20 µL with 4 µL cDNA template, 2× KAPA probe force master mix (Roche), 300 nM probe, and 100 nM forward and reverse primer. CYP3A4 expression was determined by normalizing the experimental sample cycle threshold values to DMSO-treated wells. GAPDH was used as a housekeeping gene.

[1] = test system: primary human hepatocytes (PHHs); assay: Primary human hepatocyte cytotoxicity (MTS assay); format: cell-based; details: 72 h, highest concentration tested 100 µM, mean ± SD, read-out: PHH CC50
Method: PHH cytotoxicity was determined by MTS assays following 72 h compound exposure, as described in Woodson et al. ([27]).

[2] = test system: HBV plus-polarity DNA in hepDES19 cells; assay: Effect of plasma proteins on compound potency; format: cell-based, hepatitis B virus; details: 10 µM compound, 72 h, media with BSA to 40 mg/mL versus 10% FBS (0.25 mg/mL BSA)
Method: HBV plus-polarity DNA suppression was assessed in hepDES19 cells following compound treatment for 72 h. Cells incubated with compound (10 µM) in either normal tissue culture media conditions containing 10% FBS, or in media supplemented with bovine serum albumin (BSA) to 40 mg/mL. Percent inhibition was determined, as described previously ([27], [28]). The presence of increased BSA levels was determined to affect compound potency if there was a statistically significant decrease in percent HBV plus polarity DNA suppression when compared to cells treated with compound in normal media conditions. Three or more replicate assays were performed on separate days.

T1 sequence (P10635 whole entry): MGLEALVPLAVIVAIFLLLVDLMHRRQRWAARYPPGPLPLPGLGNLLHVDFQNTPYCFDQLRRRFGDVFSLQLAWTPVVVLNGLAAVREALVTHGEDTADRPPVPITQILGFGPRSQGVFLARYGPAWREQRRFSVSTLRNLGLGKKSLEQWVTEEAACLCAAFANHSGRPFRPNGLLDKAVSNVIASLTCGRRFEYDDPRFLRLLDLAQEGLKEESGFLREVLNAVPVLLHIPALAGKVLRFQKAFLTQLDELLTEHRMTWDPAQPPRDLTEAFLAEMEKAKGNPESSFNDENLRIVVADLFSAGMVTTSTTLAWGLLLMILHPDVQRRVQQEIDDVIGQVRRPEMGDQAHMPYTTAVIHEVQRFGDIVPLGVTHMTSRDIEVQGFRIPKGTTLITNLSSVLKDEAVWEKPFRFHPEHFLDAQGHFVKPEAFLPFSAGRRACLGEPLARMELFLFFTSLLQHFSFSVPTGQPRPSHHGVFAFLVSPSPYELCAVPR

| SMILES | Selectivity index for CYP (CYP2D6) inhibition versus HBV EC50 (CYP2D6) | IC50 (CYP2D6) [µM] | CYP3A4 mRNA expression increase (CYP3A4 mRNA expression) [fold] | CC50 [1] [µM] | Effect of increased albumin on HBV plus polarity DNA suppression [2] |
| --- | --- | --- | --- | --- | --- |
| CC(=NOCc1cccc(F)c1)c1c(C)cc(=O)n(O)c1O [Compound 1618] | > 150 and 166 | 10.2 ± 4.1 | < 2 | 93.8 ± 10.7 |  |
| CC(=NOCc1ccc(F)c(F)c1)c1c(C)cc(=O)n(O)c1O [Compound 1617] |  | 4.46 |  |  | physiologically relevant |
